Among the test systems are BT-549 breast; CAKI-1 renal; EKVX NSCLC; MALME-3M melanoma; SF-539 CNS; SN12C renal; SNB-75 CNS; SW-620 colon; TK-10 renal; UO-31 renal.
Common to all, as to assay: growth of human tumour cells (NCI), 48 h

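Following 48 hours of exposure in 96-well plates, responses at five concentrations were used to interpolate endpoints linearly. TGI denotes the concentration required for complete inhibition of growth.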

As for `O=C1CC2(CCC(O)(c3cccs3)C(C(=O)c3cccs3)C2)C(=O)c2ccccc2N1` (centres undefined), the TGI with BT-549 breast, in the assay with CAKI-1 renal, with EKVX NSCLC, with MALME-3M melanoma, in the assay on SF-539 CNS and in the assay with SN12C renal was greater than 100 µM each time. The TGI in the assay on SNB-75 CNS, in the assay on SW-620 colon, with TK-10 renal and in the assay with UO-31 renal was greater than 100 µM each time.
`C1=CC(=[N+]2N=C(c3ccccc3)CC2c2ccccc2)C=CC1=C1SC(c2ccccc2)(c2ccccc2)c2ccccc21` (centres undefined): the TGI in the assay with BT-549 breast, in the assay on EKVX NSCLC, in the assay on MALME-3M melanoma, in the assay on SF-539 CNS, in the assay on SN12C renal and in the assay on SW-620 colon was greater than 100 µM in each case. Besides, the TGI with TK-10 renal and in the assay on UO-31 renal was greater than 100 µM each time.
As to `N#Cc1c(N)nc2c(c1-c1ccc(Br)cc1)CSc1ccccc1-2`, the TGI is greater than 100 µM with BT-549 breast; 68 µM in the assay on CAKI-1 renal; greater than 100 µM with MALME-3M melanoma; greater than 100 µM in the assay on SF-539 CNS; greater than 100 µM in the assay on SN12C renal; greater than 100 µM in the assay on SNB-75 CNS. The TGI in the assay on SW-620 colon, in the assay on TK-10 renal and in the assay on UO-31 renal was greater than 100 µM throughout.
In the case of `Nc1ccc(Oc2ccc(C34CC5CC(C3)CC(c3ccc(Oc6ccc(N)cc6)cc3)(C5)C4)cc2)cc1`, the TGI in the assay on BT-549 breast is 33.6 µM; with CAKI-1 renal, 46.3 µM; in the assay on EKVX NSCLC, greater than 66.5 µM; in the assay on MALME-3M melanoma, 28.7 µM; in the assay with SF-539 CNS it was 36.4 µM; in the assay with SN12C renal, greater than 55.2 µM. Also, the TGI with SNB-75 CNS was 90.5 µM; with SW-620 colon, greater than 100 µM; with TK-10 renal it was greater than 39.4 µM; in the assay with UO-31 renal, greater than 53.4 µM.
Regarding `CCOC(=O)C(=O)NCCCN1CCOCC1`, the TGI in the assay with CAKI-1 renal, in the assay on EKVX NSCLC, in the assay with MALME-3M melanoma, in the assay on SF-539 CNS, with SN12C renal and in the assay on SNB-75 CNS was greater than 100 µM each time. In addition, the TGI in the assay with SW-620 colon, in the assay on TK-10 renal and with UO-31 renal was greater than 100 µM throughout.
As for `O=c1c2ccccc2[nH]c(=S)n1-c1ccc(N=Nc2cccc3cc(O)ccc23)cc1`, the TGI with BT-549 breast, in the assay with CAKI-1 renal, with EKVX NSCLC, with MALME-3M melanoma, in the assay on SF-539 CNS and in the assay with SN12C renal was greater than 100 µM in each case. Also, the TGI in the assay with SNB-75 CNS, in the assay with SW-620 colon, with TK-10 renal and with UO-31 renal was greater than 100 µM throughout.
For the compound `O=[N+]([O-])c1ccc2c(c1)nc(Cc1ccc(Cl)cc1)n2C[C@@H]1CCCN2CCCCC12` (some centres undefined), the TGI in the assay with BT-549 breast is 27.1 µM; in the assay with CAKI-1 renal it was 31.7 µM; with EKVX NSCLC, greater than 41.2 µM; with MALME-3M melanoma, 26.2 µM; in the assay on SF-539 CNS it was 35.1 µM; with SN12C renal, 27.6 µM. Moreover, the results for the TGI in the assay with SNB-75 CNS, in the assay on SW-620 colon and in the assay with TK-10 renal were 28.3 µM, greater than 59 µM and 39.9 µM, respectively.
For `Cc1cc(=O)[nH]c(/N=C(\N)Nc2ccc(Cl)cc2)n1`, the TGI with BT-549 breast, in the assay with CAKI-1 renal, in the assay on EKVX NSCLC, in the assay on MALME-3M melanoma, with SN12C renal and in the assay with SW-620 colon was greater than 100 µM throughout. For the same compound, the TGI in the assay with TK-10 renal and with UO-31 renal was greater than 100 µM in each case.
`O=c1[nH]c(Nc2ccc(Cl)cc2)nc2nc[nH]c12`: the TGI with BT-549 breast, in the assay on CAKI-1 renal, in the assay on EKVX NSCLC, in the assay on MALME-3M melanoma, with SF-539 CNS and with SN12C renal was greater than 100 µM in each case. Also, the TGI in the assay on SNB-75 CNS, in the assay with SW-620 colon and in the assay with TK-10 renal was greater than 100 µM in each case.
As for `COC(=O)C1=C(O)CCCC(CCC(C)=O)=C1`, the TGI in the assay on BT-549 breast was greater than 100 µM; in the assay on CAKI-1 renal, greater than 100 µM; in the assay on EKVX NSCLC, greater than 100 µM; in the assay with MALME-3M melanoma, greater than 100 µM; with SF-539 CNS it was 61.1 µM; in the assay on SN12C renal it was greater than 100 µM. Moreover, the TGI in the assay with SNB-75 CNS, with SW-620 colon, with TK-10 renal and in the assay with UO-31 renal was greater than 100 µM in each case.
On to `COc1ccc(C2c3cc4c(cc3OC(O)(CO)C2C(=O)O)OCO4)cc1` (centres undefined) (tested in a mixture with another compound), for which the TGI is 88 µM in the assay on EKVX NSCLC; 75.9 µM with MALME-3M melanoma; 43.6 µM with SF-539 CNS; 54.1 µM with SN12C renal; 78.3 µM with SNB-75 CNS; 37.6 µM with SW-620 colon. Besides, the TGI with TK-10 renal and in the assay with UO-31 renal was greater than 100 µM each time.
Take `O=S(=O)(O)c1cc(N=[N+]([O-])c2cc(S(=O)(=O)O)c3ccccc3c2)cc2ccccc12`: the TGI in the assay with BT-549 breast was 39 µM; in the assay with CAKI-1 renal, 44.4 µM; in the assay on EKVX NSCLC, greater than 100 µM; in the assay with MALME-3M melanoma, greater than 100 µM; in the assay on SF-539 CNS, 60.2 µM; in the assay on SN12C renal it was 53.8 µM. For the same compound, the TGI was 30 µM in the assay on SNB-75 CNS, greater than 100 µM with SW-620 colon, greater than 100 µM in the assay with TK-10 renal and 50.2 µM with UO-31 renal.
Take `COC(CN(C=O)[C@@H](c1ccc(Cl)cc1)c1cc2ccccc2o1)OC`: the TGI with CAKI-1 renal stood at 34.7 µM; in the assay on EKVX NSCLC it was 34.4 µM; in the assay with MALME-3M melanoma, 11.5 µM; in the assay with SF-539 CNS it was 34.3 µM; in the assay on SN12C renal, 31.1 µM; in the assay with SNB-75 CNS, 42.7 µM. The TGI in the assay with SW-620 colon is 31.4 µM; with TK-10 renal, 33.4 µM; in the assay with UO-31 renal, 31.2 µM.

The values above are taken from PubChem BioAssay (NCI).
